In series [1] the test system is mustard beetle larvae (Phaedon cochleariae). Briefly: Phaedon cochleariae test (PHAECO spray application). Format: in vivo. The settings on record: 168 h, application rate 500 g/ha, sprayed Chinese cabbage (Brassica pekinesis) leaf-disks, after 7 days, read-out: mortality in % (good activity). The procedure:
Phaedon cochleariae—Test; (PHAECO Spray Application)
Solvent: 78.0 parts by weight of acetone • • 1.5 parts by weight of dimethylformamide
Emulsifier: 0.5 parts by weight of alkylaryl polyglycolether
To produce a suitable preparation of active compound, 1 part by weight of active compound is mixed with the stated amount of solvent and emulsifier, and the concentrate is diluted with emulsifier-containing water to the desired concentration.Chinese cabbage (Brassica pekinesis) leaf-disks are sprayed with a preparation of the active ingredient of the desired concentration. Once dry, the leaf disks are infested with mustard beetle larvae (Phaedon cochleariae). After 7 days mortality in % is determined. 100% means that all beetle larvae have been killed and 0% means that none of the beetle larvae have been killed.

Series [2] relates to two spotted spidermite (Tetranychus urticae), OP-resistant. Briefly: Tetranychus urticae test; OP-resistant (TETRUR spray application). Format: in vivo. The settings on record: in Phaseolus vulgaris, 144 h, read-out: mortality in % (good activity). The procedure:
Tetranychus urticae—Test; OP-Resistant (TETRUR Spray Application)
Solvent: 78.0 parts by weight acetone • 1.5 parts by weight dimethylformamide
Emulsifier: 0.5 parts by weight alkylarylpolyglcolether
To produce a suitable preparation of active compound, 1 part by weight of active compound is mixed with the stated amount of solvent and emulsifier, and the concentrate is diluted with emulsifier-containing water to the desired concentration.French beans (Phaseolus vulgaris) which are heavily infested with all stages of the two spotted spidermite (Tetranychus urticae), are sprayed with a preparation of the active ingredient at the desired concentration. After 6 days mortality in % is determined. 100% means that all spider mites have been killed and 0% means that none of the spider mites have been killed.

A value given as a limit tells only on which side of the number the result lay.

What is called mortality is the share of the test organisms that died. In the case of `CCc1ccc(-c2ccc(Cl)cc2)cc1C1=C(O)C(C)(C)C(=O)C(C)(C)C1=O` [Compound B-1], in series [1], the mortality at 500 g/ha is more than 80%. Moreover, the mortality at 100 g/ha in series [2] was not below 80%.
Broadly, the melting point is the temperature, or range, at which the solid turns liquid. For `CCc1ccc(-c2ccc(Cl)cc2)cc1C1=C(O)C2CCCC(C1=O)C2=O` (centres unmarked), the melting point was 79.5 °C.
As to `CCc1ccc(-c2ccc(Cl)cc2)cc1C1=C(O)C(C)(C)OC(C)(COC)C1=O` (centres unmarked), the melting point lay within 123 to 124 °C.
On the same count and under the same terms, the same measure for `CCc1ccc(-c2ccc(F)cc2)cc1C1=C(O)[C@@]2(C)CC[C@H](O2)C1=O`: 165 to 167 °C.

The values are drawn from patent US20110281883A1, “4-Phenyl-pyrane-3,5-diones, 4-Phenyl-thiopyrane-3,5-diones and Cyclohexanetriones and Their Use as Insecticides, Acaricides and/or Fungicides” (Bayer Cropscience AG, priority 2009, published 2011).
